Where a name gives a salt, the structure may show the parent alone.
Key:
[1] = tested on: carrageenin-induced rat paw edema; assay: Carrageenin-induced rat paw edema antiinflammatory assay; format: in vivo; conditions: 200 mg/kg of body weight
Text: The compounds of this invention are useful as antiinflammatory agents because of their ability to suppress inflammation in mammals. […] Exp. Biol. Med. III, 544 (1962)].

[2] = tested on: central nervous system; assay: Mouse observation procedure of S. Irwin, central nervous system depressant effects (tranquilizer); format: in vivo; conditions: male COBS mice, behavior and reflex depression, muscle relaxation, read-out: minimum effective dose (MED)/Kilogram of body weight
Experimental: The compounds of the invention are useful as tranquilizers because of their depressant effects on the central nervous system. The depressant effects on the central nervous system were evaluated according to the mouse observation procedure of S. Irwin, Psychopharmacologia, 13, 222 (1968). Male COBS mice are dosed with the drug, and its effects on behavior and reflex depression together with muscle relaxation determined by the degree of deviation from control scores, with activity expressed in terms of minimum effective dose (MED). The effectiveness of compounds of the invention as tranquilizers is illustrated in Table I below.

[3] = tested on: isolated rabbit atrium; assay: Isolated rabbit atrium, increase in functional refractory period (antiarrhythmic); conditions: Oryctolagus cuniculus; for activation at 20 µM: 2 × 10^-5 molar; for activation at 10 µM: 10^-5 molar; for activation at 1 µM: 10^-6 molar
Experimental: The compounds of the invention are useful as antiarrhythmic agents because of their ability to alleviate cardiac arrhythmias. […] 198] wherein the compounds effect an increase in the functional refractory period. Compounds are dissolved in Krebs-Henseleit solution, and the percent change in the functional refractory period is monitored with an oscilloscope. […] Similarly at a concentration of 10^-^6 molar 1-(3-dimethylaminopropyl)-2-(p-bromophenyl)-4,5,6,7-tetrahydroindole hydrochloride and 1-(2-methylaminoethyl)-2-phenyl-1,4,5,6,7,8-hexahydrocyclohepta[b]pyrrole hydrochloride each effect a 150% increase in the functional refractory period.

[4] = tested on: spontaneous hypertensive rat; assay: Lowering of blood pressure in the spontaneous hypertensive rat, indirect tail cuff method; format: in vivo; conditions: 100 mg/kg of body weight
Experimental: The compounds of this invention are also useful as antihypertensive agents because of their ability to lower blood pressure in mammals. […] 135. For example, at a dose of 100 mg/kg of body weight, the compounds shown in Table III below effect the corresponding decrease in systolic blood pressure.

| SMILES | inhibition in vivo at 200 mg/kg [1] [%] | minimal effective dose [2] [mg/kg] | further results |
| --- | --- | --- | --- |
| CC(CN(C)C)n1c(-c2cccc(C(F)(F)F)c2)cc2c1CCCC2 (stereo not shown) [1-(1-methyl-2-dimethylaminoethyl)-2(m-trifluoromethylphenyl)-4,5,6,7-tetrahydroindole . HCl] | 46 |  |  |
| CNCCn1c(-c2cccc(C(F)(F)F)c2)cc2c1CCCC2 [1-(2-methylaminoethyl)-2-(m-trifluoromethylphenyl)-4,5,6,7-tetrahydroindole] | 58 |  |  |
| CCN(CC)CCCn1c(-c2ccccc2)cc2c1CCc1ccccc1-2 [1-(3-diethylaminopropyl)-2-phenyl-4,5-dihydrobenz[e]-indole] |  | 20 |  |
| CN(C)CCCn1c(-c2cccc(C(F)(F)F)c2)cc2c1CCCC2 [1-(3-dimethylaminopropyl)-2-(m-trifluoromethylphenyl)-4,5,6,7-tetrahydroindole] |  | 40 |  |
| CN(C)CCCn1c(-c2ccc(N)cc2)cc2c1CCCCCC2 [1-(3-dimethylaminopropyl)-2-(p-aminophenyl)-4,5,6,7,8,9-hexahydrocycloocta[b]pyrrole] | 57 |  |  |
| CN(C)CCCn1c(-c2ccc(Cl)cc2)cc2c1CCCC2 [1-(3-dimethylaminopropyl)-2-(p-chlorophenyl)-4,5,6,7-tetrahydroindole] | 44 |  |  |
| CN(C)CCn1c(-c2ccccc2)cc2c1CCCC2 [Example 1, 1-(2-dimethylaminoethyl)-2-phenyl-4,5,6,7-tetrahydroindole hydrochloride] | 47 |  | activation at 20 µM [3]: 25% |
| CCNCCn1c(-c2ccccc2)cc2c1CCCC2 [Example 3, 1-(2-ethylaminoethyl)-2-phenyl-4,5,6,7-tetrahydroindole . oxalate] |  | 25 |  |
| c1ccc(-c2cc3c(n2CCN2CCNCC2)CCCC3)cc1 [Example 5, 1-[2-(1-piperazinylethyl)]-2-phenyl-4,5,6,7-tetrahydroindole . dioxalate] |  | 10 |  |
| CN(C)CCCn1c(-c2ccccc2)cc2c1CCCC2 [Example 6, 1-(3-dimethylaminopropyl)-2-phenyl-4,5,6,7-tetrahydroindole . HCl] | 45 |  |  |
| COc1ccc(-c2cc3c(n2CCCN(C)C)CCCC3)cc1.Cl [Example 11, 1-(3-dimethylaminopropyl)-2-(p-methoxyphenyl)-4,5,6,7-tetrahydroindole hydrochloride] | 44 | 50 | activation at 10 µM [3]: 300% |
| CN(C)CCCn1c(-c2ccc(Br)cc2)cc2c1CCCC2 [Example 12, 2-(p-bromophenyl)-1-(3-dimethylaminopropyl)-4,5,6,7-tetrahydroindole hydrochloride] |  |  | activation at 1 µM [3]: 150% |
| CNCCn1c(-c2cccc(C(F)(F)F)c2)cc2c1CCCC2 [Example 14] |  | 25 | activation at 20 µM [3]: 200% |
| CC(C)NC(C)Cn1c(-c2ccc(Cl)cc2)cc2c1CCCC2.Cl (stereo not shown) [Example 21, 1-(2-isopropylaminopropyl)-2-(p-chlorophenyl)-4,5,6,7-tetrahydroindole hydrochloride] |  | 50 |  |
| CC(C)N(CCn1c(-c2ccc(O)cc2)cc2c1CCCC2)C(C)C [Example 23, 1-(2-diisopropylaminoethyl)-2-(p-hydroxyphenyl)-4,5,6,7-tetrahydroindole] | 44 |  |  |
| CCN(CC)CCn1c(-c2ccccc2)cc2c1CCC(C)C2 (stereo not shown) [Example 24, 1-(2-diethylaminoethyl)-2-phenyl-5-methyl-4,5,6,7-tetrahydroindole hydrochloride] |  |  | activation at 10 µM [3]: 208% |
| CCN(CC)CCn1c(-c2ccccc2)cc2c1CCC(C(C)(C)C)C2.Cl (stereo not shown) [Example 25, 1-(2-diethylaminoethyl)-2-phenyl-5-(t-butyl)-4,5,6,7-tetrahydroindole hydrochloride] |  | 20 | decrease in systolic blood pressure [4]: 30 mm Hg |
| CN(C)CCCn1c2c(c(-c3ccccc3)c1-c1ccccc1)CCCC2.O.O=C(O)C(=O)O [Example 28, 1-(3-dimethylaminopropyl)-2,3-diphenyl-4,5,6,7-tetrahydroindole oxalate monohydrate] |  | 25 |  |

| SMILES | inhibition in vivo at 200 mg/kg [1] [%] | minimal effective dose [2] [mg/kg] | further results |
| --- | --- | --- | --- |
| CN(C)CCCn1c(-c2ccccc2)cc2c1-c1ccccc1CC2.Cl [Example 30, 1-(3-dimethylaminopropyl)-2-phenyl-4,5-dihydrobenz[g]indole hydrochloride] |  |  | decrease in systolic blood pressure [4]: 24 mm Hg |
| CN(C)CCCn1c(-c2ccccc2)cc2c1CCc1ccccc1-2 [Example 31, hydrochloride] | 56 | 20 | decrease in systolic blood pressure [4]: 30 mm Hg |
| CCN(CC)CCCn1c(-c2ccccc2)cc2c1CCc1ccccc1-2 [Example 32, hydrochloride] | 72 |  | decrease in systolic blood pressure [4]: 40 mm Hg |
| CNCCCn1c(-c2ccccc2)cc2c1CCC2.O=C(O)C(=O)O [Example 34, 1-(3-methylaminopropyl)-2-phenyl-1,4,5,6-tetrahydrocyclopenta[b]pyrrole oxalate] |  | 25 |  |
| CN(C)CCCn1c(-c2ccccc2)cc2c1CCC2.Cl [Example 35, 1-(3-dimethylaminopropyl)-2-phenyl-1,4,5,6-tetrahydrocyclopenta[b]pyrrole hydrochloride] |  | 50 | activation at 20 µM [3]: 233% |
| CNCCn1c(-c2ccccc2)cc2c1CCCCC2.Cl [Example 36, 1-(2-methylaminoethyl)-2-phenyl-1,4,5,6,7,8-hexahydrocyclohepta[b]pyrrole hydrochloride] |  | 50 | activation at 1 µM [3]: 150% |
| CN(C)CCn1c(-c2ccccc2)cc2c1CCCCC2 [Example 37, 1-(2-dimethylaminoethyl)-2-phenyl-1,4,5,6,7,8-hexahydrocyclohepta[b]pyrrole . HCl] |  |  | decrease in systolic blood pressure [4]: 45 mm Hg |
| CC(CN(C)C)n1c(-c2ccccc2)cc2c1CCCCC2 (stereo not shown) [Example 38, 1-(1-methyl-2-dimethylaminoethyl)-2-phenyl-1,4,5,6,7,8-hexahydrocyclohepta[b]pyrrole . oxalate] | 58 | 6 |  |
| CNCCCn1c(-c2ccccc2)cc2c1CCCCC2 [Example 39, 1-(3-methylaminopropyl)-2-phenyl-1,4,5,6,7,8-hexahydrocyclohepta[b]pyrrole . HCl] |  | 50 | activation at 10 µM [3]: 214%; decrease in systolic blood pressure [4]: 42 mm Hg |
| CC(C)NCCCn1c(-c2ccccc2)cc2c1CCCCC2 [Example 43, 1-(3-isopropylaminopropyl)-2-phenyl-1,4,5,6,7,8-hexahydrocyclohepta[b]pyrrole . oxalate] |  | 37 |  |
| CNCCCn1c(-c2ccc(OC)cc2)cc2c1CCCCC2.O=C(O)C(=O)O [Example 49, 1-(3-methylaminopropyl)-2-(p-methoxyphenyl)-1,4,5,6,7,8-hexahydrocyclohepta[b]-pyrrole oxalate] |  | 10 |  |
| COc1cc(-c2cc3c(n2CCCN(C)C)CCCCC3)cc(OC)c1OC.Cl [Example 54, 1-(3-dimethylaminopropyl)-2-(3,4,5-trimethoxyphenyl)-1,4,5,6,7,8-hexahydrocyclohepta[b]pyrrole hydrochloride] |  | 50 |  |
| CN(C)CCCn1c(-c2ccc(F)cc2)cc2c1CCCCC2.Cl [Example 55, 1-(3-dimethylaminopropyl)-2-(p-fluorophenyl)-1,4,5,6,7,8-hexahydrocyclohepta[b]pyrrole hydrochloride] |  | 50 |  |
| CN(C)CCCn1c(-c2ccccc2)cc2c1CCCCCC2.Cl [Example 56, 1-(3-dimethylaminopropyl)-2-phenyl-4,5,6,7,8,9-hexahydrocycloocta[b]pyrrole hydrochloride] |  |  | decrease in systolic blood pressure [4]: 50 mm Hg |
| CCNCCn1c(-c2ccccc2)cc2c1CCCCCC2.O=C(O)C(=O)O [Example 57, 1-(2-ethylaminoethyl)-2-phenyl-4,5,6,7,8,9-hexahydrocycloocta[b]pyrrole oxalate] |  | 25 |  |
| CN(C)CCCn1c(-c2ccc([N+](=O)[O-])cc2)cc2c1CCCCCC2 [Example 58, 1-(3-dimethylaminopropyl)-2-(p-nitrophenyl)-4,5,6,7,8,9-hexahydrocycloocta[b]-pyrrole hydrochloride] |  |  | activation at 10 µM [3]: 125% |
| CN(C)CCCn1c(-c2ccc(N)cc2)cc2c1CCCCCC2.O.O=C(O)C(=O)O.O=C(O)C(=O)O [Example 59, 1-(3-dimethylaminopropyl)-2-(p-aminophenyl)-4,5,6,7,8,9-hexahydrocycloocta[b]pyrrole dioxalate monohydrate] |  | 25 |  |
| CN(C)CCCn1c(-c2ccc(F)cc2)cc2c1CCCCCC2 [Example 60, 1-(3-dimethylaminopropyl)-2-(p-fluorophenyl)-4,5,6,7,8,9-hexahydrocycloocta[b]pyrrole oxalate] |  |  | activation at 10 µM [3]: 139% |
